Data as given in patent publication US9527832B2, “Substituted condensed pyrimidine compounds” (GRÜNENTHAL GMBH, priority 2013, dated 2016).
Where two headings read alike, the source gives them in different places.

Biological target: T1, human PDE4B1 (Homo sapiens, UniProt Q07343)
T1 construct: host or cells: Sf9 cells
Experiment: cAMP HTRF assay to determine the activity of hPDE4B1
Format: biochemical
Conditions: for inhibition at 1 µM: Percentage inhibition of PDE4B at 1 μM test concentration; for IC50: reported as ranges; for inhibition at 0.1 µM: Percentage inhibition of PDE4B at 0.1 μM test concentration, read-out: Inhibition [%] (inh. at 0.1 μM)
How it was run: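 Sf9-expressed recombinant human PDE4B1 (4.8 U) in Tris-HCl/MgCl2/DTT/Tween 20 buffer pH 7.8, with cAMP at 40 nM final, 30 min at room temperature. Reaction stopped with IBMX 1 mM; remaining cAMP detected by HTRF (665/620 nm ratio). IC50 from eight-point dose-response, n=2.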

[1] = dose response measurements with eight concentrations, read-out: IC50

T1 sequence (Q07343 whole entry): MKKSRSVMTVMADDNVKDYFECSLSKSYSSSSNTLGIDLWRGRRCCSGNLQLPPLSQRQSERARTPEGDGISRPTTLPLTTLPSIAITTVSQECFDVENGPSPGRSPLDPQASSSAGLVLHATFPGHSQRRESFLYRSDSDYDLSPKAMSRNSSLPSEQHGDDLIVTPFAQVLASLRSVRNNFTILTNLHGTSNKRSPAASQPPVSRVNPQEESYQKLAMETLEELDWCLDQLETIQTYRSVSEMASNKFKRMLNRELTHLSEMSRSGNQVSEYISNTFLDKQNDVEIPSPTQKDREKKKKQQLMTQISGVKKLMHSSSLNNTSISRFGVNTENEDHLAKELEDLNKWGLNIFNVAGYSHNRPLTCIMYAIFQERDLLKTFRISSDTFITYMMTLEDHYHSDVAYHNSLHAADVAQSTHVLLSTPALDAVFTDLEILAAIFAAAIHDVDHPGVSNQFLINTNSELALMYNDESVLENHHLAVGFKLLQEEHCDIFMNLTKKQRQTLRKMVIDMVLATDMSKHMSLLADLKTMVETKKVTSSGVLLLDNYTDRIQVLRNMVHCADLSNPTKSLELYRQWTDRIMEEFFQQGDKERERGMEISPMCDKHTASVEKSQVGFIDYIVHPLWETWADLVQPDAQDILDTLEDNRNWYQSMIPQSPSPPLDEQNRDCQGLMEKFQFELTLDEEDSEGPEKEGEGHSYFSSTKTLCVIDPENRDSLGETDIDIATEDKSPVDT

Row | SMILES | inhibition at 1 µM [%] | IC50 [1] [µM] | inhibition at 0.1 µM [%] | IC50 (IC50, dose response measurements with eight concentrations) [µM]
1 | CN(C)C(=O)COc1ccc2ccn(-c3nc(-c4ccc(Cl)s4)nc4c3C[S+]([O-])C4)c2c1 (centres unmarked) [Compound No. 2-73, 2-((1-(2-(5-Chlorothiophen-2-yl)-6-oxido-5,7-dihydrothieno[3,4-d]pyrimidin-4-yl)-1H-indol-6-yl)oxy)-N,N-dimethylacetamide] | 116 | < 0.1 | – | –
2 | CN(C)C(=O)COc1ccc2c(c1)N(c1nc(-c3ccc(C#N)c(F)c3)nc3c1C[S+]([O-])C3)CC2 (centres unmarked) [Compound No. 2-77, 2-((1-(2-(4-Cyano-3-fluorophenyl)-6-oxido-5,7-dihydrothieno[3,4-d]pyrimidin-4-yl)indolin-6-yl)oxy)-N,N-dimethylacetamide] | 92 | < 0.1 | – | –
3 | CN(C)C(=O)COc1ccc2c(c1)N(c1nc(-c3ccc(Cl)c(F)c3)nc3c1C[S+]([O-])C3)CC2 (centres unmarked) [Compound No. 2-78, 2-((1-(2-(4-Chloro-3-fluorophenyl)-6-oxido-5,7-dihydrothieno[3,4-d]pyrimidin-4-yl)indolin-6-yl)oxy)-N,N-dimethylacetamide] | 105 | < 0.1 | – | –
4 | CN(C)C(=O)COc1ccc2c(c1)N(c1nc(-c3ccc(O)c(F)c3)nc3c1C[S+]([O-])C3)CC2 (centres unmarked) [Compound No. 2-79, 2-((1-(2-(3-Fluoro-4-hydroxyphenyl)-6-oxido-5,7-dihydrothieno[3,4-d]pyrimidin-4-yl)indolin-6-yl)oxy)-N,N-dimethylacetamide] | 92 | < 0.1 | – | –
5 | CN(C)C(=O)COc1ccc2c(c1)N(c1nc(-c3ccc(C(N)=O)s3)nc3c1C[S+]([O-])C3)CC2 (centres unmarked) [Compound No. 2-80, 5-(4-(6-(2-(Dimethylamino)-2-oxoethoxy)indolin-1-yl)-6-oxido-5,7-dihydrothieno[3,4-d]pyrimidin-2-yl)thiophene-2-carboxamide] | – | < 0.1 | 101 | –
6 | CN(C)C(=O)COc1ccc2c(c1)N(c1nc(-c3ccc(C(N)=O)s3)nc3c1CS(=O)(=O)C3)CC2 [Compound No. 2-81, 5-(4-(6-(2-(Dimethylamino)-2-oxoethoxy)indolin-1-yl)-6,6-dioxido-5,7-dihydrothieno[3,4-d]pyrimidin-2-yl)thiophene-2-carboxamide] | – | < 0.1 | 113 | –
7 | CN(C)C(=O)COc1ccc2c(c1)N(c1nc(-c3ccc(C#N)s3)nc3c1C[S+]([O-])C3)CC2 (centres unmarked) [Compound No. 2-82, 2-((1-(2-(5-Cyanothiophen-2-yl)-6-oxido-5,7-dihydrothieno[3,4-d]pyrimidin-4-yl)indolin-6-yl)oxy)-N,N-dimethylacetamide] | 99 | < 0.1 | – | –
8 | CN(C)C(=O)COc1ccc2c(c1)N(c1nc(-c3ccc(C#N)s3)nc3c1CS(=O)(=O)C3)CC2 [Compound No. 2-83, 2-((1-(2-(5-Cyanothiophen-2-yl)-6,6-dioxido-5,7-dihydrothieno[3,4-d]pyrimidin-4-yl)indolin-6-yl)oxy)-N,N-dimethylacetamide] | 97 | < 0.1 | – | –
9 | CN(C)C(=O)COc1ccc2c(c1)N(c1nc(-c3ccc(C#N)s3)nc3c1CCC3)CC2 [Compound No. 2-84, 2-((1-(2-(5-Cyanothiophen-2-yl)-6,7-dihydro-5H-cyclopenta[d]pyrimidin-4-yl)indolin-6-yl)oxy)-N,N-dimethylacetamide] | 91 | < 0.1 | – | –
10 | CN(C)C(=O)COc1ccc2c(c1)N(c1nc(-c3ccc(Br)c(F)c3)nc3c1C[S+]([O-])C3)CC2 (centres unmarked) [Compound No. 2-86, 2-((1-(2-(4-Bromo-3-fluorophenyl)-6-oxido-5,7-dihydrothieno[3,4-d]pyrimidin-4-yl)indolin-6-yl)oxy)-N,N-dimethylacetamide] | 111 | 0.1 to 1 | – | –
11 | O=C(COc1ccc2c(c1)N(c1nc(-c3ccc(Cl)s3)nc3c1CCC3)CC2)NC1CC1 [Compound No. 2-114, 2-((1-(2-(5-Chlorothiophen-2-yl)-6,7-dihydro-5H-cyclopenta[d]-pyrimidin-4-yl)indolin-6-yl)oxy)-N-cyclopropylacetamide] | 38 | – | – | –
12 | COc1ccc(-c2nc3c(c(N4CCc5ccc(OCC(=O)N(C)C)cc54)n2)CS(=N)(=O)C3)cc1F (centres unmarked) [Compound No. 2-115, 2-((1-(2-(3-Fluoro-4-methoxyphenyl)-6-imino-6-oxido-5,7-dihydrothieno[3,4-d]pyrimidin-4-yl)indolin-6-yl)oxy)-N,N-dimethylacetamide] | 106 | < 0.1 | – | –
13 | CN1CCN(C(=O)COc2ccc3c(c2)N(c2nc(-c4ccc(Cl)s4)nc4c2C[S+]([O-])C4)CC3)CC1 (centres unmarked) [Compound No. 2-117, 2-((1-(2-(5-Chlorothiophen-2-yl)-6-oxido-5,7-dihydrothieno[3,4-d]pyrimidin-4-yl)indolin-6-yl)oxy)-1-(4-methylpiperazin-1-yl)ethanone] | 88 | – | – | –
14 | COc1ccc(-c2nc3c(c(N4CCc5ccc(OCC(=O)N6CCCC6)cc54)n2)C[S+]([O-])C3)cc1F (centres unmarked) [Compound No. 2-119, 2-((1-(2-(3-Fluoro-4-methoxyphenyl)-6-oxido-5,7-dihydrothieno[3,4-d]pyrimidin-4-yl)indolin-6-yl)oxy)-1-(pyrrolidin-1-yl)ethanone] | 107 | – | – | –
15 | CN1CCN(C(=O)COc2ccc3c(c2)N(c2nc(-c4ccc(Cl)s4)nc4c2CS(=O)(=O)C4)CC3)CC1 [Compound No. 2-123, 2-((1-(2-(5-Chlorothiophen-2-yl)-6,6-dioxido-5,7-dihydrothieno[3,4-d]pyrimidin-4-yl)indolin-6-yl)oxy)-1-(4-methylpiperazin-1-yl) ethanone] | 95 | – | – | < 0.1
16 | CN1CCN(C(=O)COc2ccc3c(c2)N(c2nc(-c4ccc(Cl)s4)nc4c2CCC4)CC3)CC1 [Compound No. 2-129, 2-((1-(2-(5-Chlorothiophen-2-yl)-6,7-dihydro-5H-cyclopenta[d]pyrimidin-4-yl)indolin-6-yl)oxy)-1-(4-methylpiperazin-1-yl)ethanone] | 48 | – | – | –
17 | O=C(COc1ccc2c(c1)N(c1nc(-c3ccncc3)nc3c1CS(=O)(=O)C3)CC2)N1CCCC1 [Compound No. 2-130, 2-((1-(6,6-Dioxido-2-(pyridin-4-yl)-5,7-dihydrothieno[3,4-d]pyrimidin-4-yl)indolin-6-yl)oxy)-1-(pyrrolidin-1-yl)ethanone] | 87 | < 0.1 | – | –

Further lines, with some results ahead:

Row | inhibition at 1 µM [%] | IC50 [1] [µM] | inhibition at 0.1 µM [%] | SMILES | IC50 (IC50, dose response measurements with eight concentrations) [µM]
18 | 121 | – | – | O=C(COc1ccc2c(c1)N(c1nc(-c3ccc(Cl)s3)nc3c1C[S+]([O-])C3)CC2)N1CCCC1 (centres unmarked) [Compound No. 2-116, 2-((1-(2-(5-Chlorothiophen-2-yl)-6-oxido-5,7-dihydrothieno[3,4-d]pyrimidin-4-yl)indolin-6-yl)oxy)-1-(pyrrolidin-1-yl)ethanone] | –
19 | 93 | – | – | O=C(COc1ccc2c(c1)N(c1nc(-c3ccc(Cl)s3)nc3c1C[S+]([O-])C3)CC2)N1CCOCC1 (centres unmarked) [Compound No. 2-118, 2-((1-(2-(5-Chlorothiophen-2-yl)-6-oxido-5,7-dihydrothieno[3,4-d]pyrimidin-4-yl)indolin-6-yl)oxy)-1-morpholinoethanone] | –
20 | 116 | – | – | O=C(COc1ccc2c(c1)N(c1nc(-c3ccc(F)s3)nc3c1C[S+]([O-])C3)CC2)N1CCCC1 (centres unmarked) [Compound No. 2-120, 2-((1-(2-(5-Fluorothiophen-2-yl)-6-oxido-5,7-dihydrothieno[3,4-d]pyrimidin-4-yl)indolin-6-yl)oxy)-1-(pyrrolidin-1-yl)ethanone] | –
21 | 111 | – | – | COc1ccc(-c2nc3c(c(N4CCc5ccc(OCC(=O)N6CCCC6)cc54)n2)C[S+]([O-])C3)cc1 (centres unmarked) [Compound No. 2-121, 2-((1-(2-(4-Methoxyphenyl)-6-oxido-5,7-dihydrothieno[3,4-d]pyrimidin-4-yl)indolin-6-yl)oxy)-1-(pyrrolidin-1-yl)ethanone] | –
22 | 40 | – | – | O=C(COc1ccc2c(c1)N(c1nc(-c3ccc(Cl)s3)nc3c1C[S+]([O-])C3)CC2)N1CCC1 (centres unmarked) [Compound No. 2-122, 1-(Azetidin-1-yl)-2-((1-(2-(5-chlorothiophen-2-yl)-6-oxido-5,7-dihydrothieno[3,4-d]pyrimidin-4-yl)indolin-6-yl)oxy)ethanone] | –
23 | 104 | < 0.1 | – | O=C(COc1ccc2c(c1)N(c1nc(-c3ccc(Cl)s3)nc3c1CS(=O)(=O)C3)CC2)N1CCC1 [Compound No. 2-124, 1-(Azetidin-1-yl)-2-((1-(2-(5-chlorothiophen-2-yl)-6,6-dioxido-5,7-dihydrothieno[3,4-d]pyrimidin-4-yl)indolin-6-yl)oxy)ethanone] | –
24 | 85 | < 0.1 | – | O=C(COc1ccc2c(c1)N(c1nc(-c3ccc(Cl)s3)nc3c1CS(=O)(=O)C3)CC2)N1CCOCC1 [Compound No. 2-125, 2-((1-(2-(5-Chlorothiophen-2-yl)-6,6-dioxido-5,7-dihydrothieno[3,4-d]pyrimidin-4-yl)indolin-6-yl)oxy)-1-morpholinoethanone] | –
25 | 104 | < 0.1 | – | O=C(COc1ccc2c(c1)N(c1nc(-c3ccc(Cl)s3)nc3c1CS(=O)(=O)C3)CC2)N1CCCC1 [Compound No. 2-126, 2-((1-(2-(5-Chlorothiophen-2-yl)-6,6-dioxido-5,7-dihydrothieno[3,4-d]pyrimidin-4-yl)indolin-6-yl)oxy)-1-(pyrrolidin-1-yl)ethanone] | –
26 | 43 | – | – | O=C(COc1ccc2c(c1)N(c1nc(-c3ccc(Cl)s3)nc3c1CCC3)CC2)N1CCC1 [Compound No. 2-127, 1-(Azetidin-1-yl)-2-((1-(2-(5-chlorothiophen-2-yl)-6,7-dihydro-5H-cyclopenta[d]pyrimidin-4-yl)indolin-6-yl)oxy)ethanone] | –
27 | 85 | 0.1 to 1 | – | O=C(COc1ccc2c(c1)N(c1nc(-c3ccc(Cl)s3)nc3c1CCC3)CC2)N1CCOCC1 [Compound No. 2-128, 2-((1-(2-(5-Chlorothiophen-2-yl)-6,7-dihydro-5H-cyclopenta[d]pyrimidin-4-yl)indolin-6-yl)oxy)-1-morpholinoethanone] | –
